{
  "source": "patent US4168206A",
  "about": "“Impregnated disk method for testing antifungal susceptibility” (Philadelphia College of Osteopathic Medicine, priority 1977, dated 1979)",
  "key": {"C. parapsilosis": {"test_system": "C. parapsilosis", "experiment": "MIC by broth dilution method, Candida parapsilosis", "format": "cell-based", "conditions": "Lodderomyces parapsilosis", "excerpt": "(§1) The preparation of the nutrient media, the antifungal agents and the fungi to be tested in the present invention are similar to those reported in S. Shadomy and A. Espinel-Ingroff, \"Susceptibility Testing Of Antifungal Agents\", Ch. 63, pp. 569-574 in E. H. Lennett, E. H. Spaulding, and J. P. Truant, Eds., Manual Of Clinical Microbiology, 2nd Ed., American Society for Microbiology, Washington, D.C. (1974). This publication describes the susceptibility testing of antifungal agents, namely, amphotericin B, nystatin and 5-fluoro-cytosine (5-FC), by the \"broth dilution method\" and the \"semisolid agar dilution method\". At pages 570-571, it is stated:\n(§2) In 10 duplicate runs with each strain tested, the variation in minimum inhibitory concentration averaged ±0.05 μg/ml.\n(§3) *Broth dilution method conducted in accordance with S. Shadomy and E.\n(§4) Espinel-Ingroff, \"Susceptibility Testing of Antifungal Agents\", Ch. 63,\n(§5) pp. 569-574 in E. H. Spaulding and J. P. Truant, Eds., Manual Of Clinical\n(§6) Microbiology, 2nd Ed., American Society for Microbiology, Washington, […]"}, "[1]": {"conditions": "cited from earlier work"}, "Geotrichum candidum": {"test_system": "Geotrichum candidum", "experiment": "MIC by impregnated disk method, Geotrichum candidum", "format": "cell-based", "conditions": "read-out: Minimum Inhibitory Concentration, Disk", "experimental": "Stock solutions of the antifungal agents to be tested are preferably prepared by diluting the antifungal agents in the proper nutrient medium. It is presently preferred to prepare dilutions in 10 ml of the proper medium to give the following final concentrations when applied to the disks (all quantities in micrograms per milliliter): 0.05, 0.08, 0.09, 0.1; 0.1 increment increases to 0.9, 1.0; 0.5 increment increases to 10.0; and 12.0, 14.0, 20.0, 25.0 and 50.0. Disks have been prepared by placing 0.05 ml of the above dilutions of antifungal agent containing medium on 6.5 mm diameter disks in 0.01 or 0.02 ml increments. The impregnated disks are then allowed to dry at a temperature preferably below about 10° C. […] The disks may also be dried by a lyophilization or freeze drying process.\nTo perform the tests in accordance with the present inventions, disks impregnated with various concentrations of antifungal agent and nutrient medium and a control disk impregnated only with the corresponding nutrient medium are placed on the fungus to be tested which has been applied to the non-nutrient medium. The disks are the inoculated non-nutrient medium are then incubated at a suitable temperature for a sufficient time to promote growth of the fungus. Any temperature is suitable if it will promote growth of the fungus without adversely affecting the fungus or the activity of the antifungal agent or agents tested. The time of incubation can be determined by observing the extent of growth around the control disk. […] The zones of growth or inhibition around the disks were read at 6, 12, 24, 36 and 48 hours after the disks were placed on the tested fungus.\nThe minimum inhibitory concentration is defined as the lowest concentration of antifungal agent which inhibits visible growth. […]\nSeveral test disks and a control disk were placed in each petri dish containing the inoculated agar. The disks and petri dishes were then incubated at 29° C. and the minimum inhibitory concentration of the various concentrations of the antifungal agents were read at 6, 12, 24, 36 and 48 hours. […]"}, "Saccharomyces cerevisiae": {"test_system": "Saccharomyces cerevisiae", "experiment": "MIC by broth dilution method, Saccharomyces cerevisiae", "format": "cell-based", "conditions": "Saccharomyces cerevisiae", "excerpt": "as §1, §2, §3, §4, §5, §6"}, "Trichosporon sp.": {"test_system": "Trichosporon sp.", "experiment": "MIC by broth dilution method, Trichosporon sp.", "format": "cell-based", "conditions": "Trichosporon, read-out: Minimum Inhibitory Concentration, Broth", "excerpt": "as §1, §2, §3, §4, §5, §6"}},
  "note": "Where two headings read alike, the source gives them in different places.",
  "data": [
    {"compound": "C[C@@H]1[C@H](O)[C@@H](C)/C=C/C=C/C=C/C=C/C=C/C=C/C=C/[C@H](O[C@@H]2O[C@H](C)[C@@H](O)[C@H](N)[C@@H]2O)C[C@@H]2O[C@](O)(C[C@@H](O)C[C@@H](O)[C@H](O)CC[C@@H](O)C[C@@H](O)CC(=O)O[C@H]1C)C[C@H](O)[C@H]2C(=O)O", "note": "[Amphotericin B, amphotericin B]", "values": [
      {"measurement": "MIC", "setting": "C. parapsilosis; read-out: Minimum Inhibitory Concentration, Broth, C. parapsilosis isolate 1", "result": 0.8, "unit": "µg/mL"},
      {"measurement": "MIC", "setting": "C. parapsilosis; read-out: Minimum Inhibitory Concentration, Broth, C. parapsilosis isolate 2", "result": 0.6, "unit": "µg/mL"},
      {"measurement": "stability in acid", "setting": "[1]; in the presence of acid", "result": "unstable in the presence of acid"},
      {"measurement": "thermal stability", "setting": "[1]; upon incubation", "result": "subject to thermal destruction upon incubation"},
      {"measurement": "solubility in water", "setting": "[1]; water", "result": "insoluble in water"},
      {"measurement": "MIC", "setting": "Geotrichum candidum", "result": 0.8, "unit": "µg/mL"},
      {"measurement": "MIC", "setting": "Saccharomyces cerevisiae; read-out: Minimum Inhibitory Concentration, Broth, S. cerevisiae isolate 2", "result": 0.8, "unit": "µg/mL"},
      {"measurement": "MIC", "setting": "Saccharomyces cerevisiae; read-out: Minimum Inhibitory Concentration, Broth, Saccharomyces cerevisiae isolate 1", "result": 0.4, "unit": "µg/mL"},
      {"measurement": "MIC", "setting": "Trichosporon sp.", "result": 1.1, "unit": "µg/mL"}
    ]}
  ]
}
